Source: US20260374792A1, “PHENYL-FREE BISCATIONIC QUATERNARY PHOSPHONIUM COMPOUNDS AS ANTIMICROBIAL AGENTS” (priority 2022, published 2026)

System: MSSA (SH1000)
Test: MIC against methicillin-susceptible S. aureus (MSSA)
Assay type: cell-based
Conditions: Staphylococcus aureus; MSSA (SH1000); 72 hours, 37 °C; read-out: MIC
Method: (§1) The term “minimum inhibitory concentration (MIC)” means the lowest concentration of an antimicrobial agent that will inhibit the visible growth of a microorganism after overnight incubation. MIC values against bacteria, for example, the Gram-positive Staphylococcus aureus and Enterococcus faecalis and the Gram-negative Escherichia coli and Pseudomonas aeruginosa were determined by standard methods. See also P. A. Wayne, Methods for Dilution Antimicrobial Tests for Bacteria that Grow Aerobically; Approved Standard, Ninth Edition, 2012, CLSI Document M07-A9, Vol. 32 No. 2.
(§2) Biological testing procedures were adapted from prior work by Melander and coworkers. For all biological assays, laboratory strains of methicillin-susceptible Staphylococcus aureus MSSA (SH1000), Staphylococcus aureus CA-MRSA (USA300-0114), Staphylococcus aureus HA-MRSA (ATCC 33591), Escherichia coli (MC4100), Enterococcus faecalis (OG1RF), Acinetobacter baumannii (ATCC 17978), were grown with shaking at 37 °C overnight from freezer stocks in 5 mL of the indicated media: SH1000, OG1RF, MC4100, USA300-0114, and ATCC 17978 were grown in BDTM Mueller-Hinton broth (MHB), whereas ATCC 33591 was grown in BDTM tryptic soy broth (TSB). The inoculum were then streaked onto Mueller-Hinton agar (MHA) plates and grown overnight at 37 °C. From the plates, single colonies were selected, diluted into 50 mL of fresh media and grown overnight at 37 °C with shaking for use in the MIC assays. Optical density (OD) measurements were obtained using a SpectraMax iD3 plate reader (Molecular Devices, United States).
(§3) Compounds were serially diluted two-fold from stock solutions (1.0 mM) to yield twelve 100 μL test concentrations, wherein the starting concentration of dimethyl sulfoxide (DMSO) was 2.5%. Overnight S. aureus, E. faecalis, E. coli, A. baumannii, USA300-0114 (CA-MRSA), and ATCC 33591 (HA-MRSA) cultures were diluted to ca. 10^6 CFU/mL in MHB or TSB and regrown to mid-exponential phase, as determined by optical density recorded at 600 nm (OD600). All cultures were then diluted again to ca. 10^6 CFU/mL and 100 μL were inoculated into each well of a U-bottom 96-well plate (Corning, 351177) containing 100 μL of compound solution. Plates were incubated statically at 37 °C for 72 hours upon which wells were evaluated visually for bacterial growth. The MIC was determined as the lowest concentration of compound resulting in no bacterial growth visible to the naked eye, based on the highest value in three independent experiments. Aqueous DMSO controls were conducted as appropriate for each compound.
(§4) The prepared library of biscationic amphiphilic compounds was assessed for performance as antibacterial disinfectants by determining the minimum inhibitory concentration (MIC) for each against a panel of bacteria. The bacteria selected for the study were chosen to evaluate the broad spectrum antimicrobial performance of the QPCs, and therefore, included both Gram-positive and Gram-negative bacterial strains, including those with known antimicrobial resistance mechanisms. These bacteria include the Gram-positive strains of methicillin-susceptible Staphylococcus aureus [MSSA; SH1000], community-acquired methicillin-resistant Staphylococcus aureus [CA-MRSA; USA 300-0114], hospital-acquired methicillin-resistant Staphylococcus aureus [HA-MRSA; ATCC 33591] and the […], Escherichia coli [MC4100], Acinetobacter baumannii [ATCC 17498] and Pseudomonas aeruginosa [PAO1].

Structure (SMILES)	MIC [µM]
CCCCCCCCCC[P+](C)(C)CC[P+](C)(C)CCCCCCCCCC [^MeP2P-10,10]	2
CCCCCCCCCCC[P+](C)(C)CC[P+](C)(C)CCCCCCCCCCC [^MeP2P-11,11]	2
CCCCCCCCCCCCCC[P+](C)(C)CC[P+](C)(C)CCCCCCCCCCC [^MeP2P-14,14]	8
CCCCCCCCCCCCCCCC[P+](C)(C)CC[P+](C)(C)CCCCCCCCCCC [^MeP2P-16,16]	32
CCCCCCCCCC[P+](CC[P+](CCCCCCCCCC)(c1ccccc1)c1ccccc1)(c1ccccc1)c1ccccc1 [^PhP2P-10,10, reference compound]	1

System: CA-MRSA (USA300-0114)
Test: MIC against community-acquired methicillin-resistant S. aureus (CA-MRSA)
Assay type: cell-based
Conditions: Staphylococcus aureus, 72 h
Method: as §1, §2, §3, §4

Structure (SMILES)	MIC [µM]
CCCCCCCCCC[P+](C)(C)CC[P+](C)(C)CCCCCCCCCC [^MeP2P-10,10]	2
CCCCCCCCCCC[P+](C)(C)CC[P+](C)(C)CCCCCCCCCCC [^MeP2P-11,11]	1
CCCCCCCCCCCCCC[P+](C)(C)CC[P+](C)(C)CCCCCCCCCCC [^MeP2P-14,14]	4
CCCCCCCCCCCCCCCC[P+](C)(C)CC[P+](C)(C)CCCCCCCCCCC [^MeP2P-16,16]	32
CCCCCCCCCC[P+](CC[P+](CCCCCCCCCC)(c1ccccc1)c1ccccc1)(c1ccccc1)c1ccccc1 [^PhP2P-10,10, reference compound]	0.5

System: HA-MRSA (ATCC 33591)
Test: MIC against hospital-acquired methicillin-resistant S. aureus (HA-MRSA)
Assay type: cell-based
Conditions: Staphylococcus aureus, 72 h
Method: as §1, §2, §3, §4

Structure (SMILES)	MIC [µM]
CCCCCCCCCC[P+](C)(C)CC[P+](C)(C)CCCCCCCCCC [^MeP2P-10,10]	2
CCCCCCCCCCC[P+](C)(C)CC[P+](C)(C)CCCCCCCCCCC [^MeP2P-11,11]	1
CCCCCCCCCCCCCC[P+](C)(C)CC[P+](C)(C)CCCCCCCCCCC [^MeP2P-14,14]	8
CCCCCCCCCCCCCCCC[P+](C)(C)CC[P+](C)(C)CCCCCCCCCCC [^MeP2P-16,16]	63
CCCCCCCCCC[P+](CC[P+](CCCCCCCCCC)(c1ccccc1)c1ccccc1)(c1ccccc1)c1ccccc1 [^PhP2P-10,10, reference compound]	1

System: E. faecalis (OG1RF)
Test: MIC against E. faecalis
Assay type: cell-based
Conditions: Enterococcus faecalis, 72 h
Method: as §1, §2, §3, §4

Structure (SMILES)	MIC [µM]
CCCCCCCCCC[P+](C)(C)CC[P+](C)(C)CCCCCCCCCC [^MeP2P-10,10]	16
CCCCCCCCCCC[P+](C)(C)CC[P+](C)(C)CCCCCCCCCCC [^MeP2P-11,11]	2
CCCCCCCCCCCCCC[P+](C)(C)CC[P+](C)(C)CCCCCCCCCCC [^MeP2P-14,14]	32
CCCCCCCCCCCCCCCC[P+](C)(C)CC[P+](C)(C)CCCCCCCCCCC [^MeP2P-16,16]	250
CCCCCCCCCC[P+](CC[P+](CCCCCCCCCC)(c1ccccc1)c1ccccc1)(c1ccccc1)c1ccccc1 [^PhP2P-10,10, reference compound]	8

System: E. coli (MC4100)
Test: MIC against E. coli
Assay type: cell-based
Conditions: Escherichia coli, 72 hours, 37 °C
Method: as §1, §2, §3, §4

Structure (SMILES)	MIC [µM]
CCCCCCCCCC[P+](C)(C)CC[P+](C)(C)CCCCCCCCCC [^MeP2P-10,10]	16
CCCCCCCCCCC[P+](C)(C)CC[P+](C)(C)CCCCCCCCCCC [^MeP2P-11,11]	4
CCCCCCCCCCCCCC[P+](C)(C)CC[P+](C)(C)CCCCCCCCCCC [^MeP2P-14,14]	32
CCCCCCCCCCCCCCCC[P+](C)(C)CC[P+](C)(C)CCCCCCCCCCC [^MeP2P-16,16]	250
CCCCCCCCCC[P+](CC[P+](CCCCCCCCCC)(c1ccccc1)c1ccccc1)(c1ccccc1)c1ccccc1 [^PhP2P-10,10, reference compound]	4

System: A. baumannii
Test: MIC against A. baumannii
Assay type: cell-based
Conditions: Acinetobacter baumannii, 72 h
Method: as §1, §2, §3, §4

Structure (SMILES)	MIC [µM]
CCCCCCCCCC[P+](C)(C)CC[P+](C)(C)CCCCCCCCCC [^MeP2P-10,10]	63
CCCCCCCCCCC[P+](C)(C)CC[P+](C)(C)CCCCCCCCCCC [^MeP2P-11,11]	16
CCCCCCCCCCCCCC[P+](C)(C)CC[P+](C)(C)CCCCCCCCCCC [^MeP2P-14,14]	125
CCCCCCCCCCCCCCCC[P+](C)(C)CC[P+](C)(C)CCCCCCCCCCC [^MeP2P-16,16]	> 250
CCCCCCCCCC[P+](CC[P+](CCCCCCCCCC)(c1ccccc1)c1ccccc1)(c1ccccc1)c1ccccc1 [^PhP2P-10,10, reference compound]	2

System: P. aeruginosa (PAO1)
Test: MIC against P. aeruginosa
Assay type: cell-based
Conditions: Pseudomonas aeruginosa; P. aeruginosa (PAO1); 72 hours, 37 °C; read-out: MIC
Method: as §1, §2, §3, §4

Structure (SMILES)	MIC [µM]
CCCCCCCCCC[P+](C)(C)CC[P+](C)(C)CCCCCCCCCC [^MeP2P-10,10]	32
CCCCCCCCCCC[P+](C)(C)CC[P+](C)(C)CCCCCCCCCCC [^MeP2P-11,11]	8
CCCCCCCCCCCCCC[P+](C)(C)CC[P+](C)(C)CCCCCCCCCCC [^MeP2P-14,14]	63
CCCCCCCCCCCCCCCC[P+](C)(C)CC[P+](C)(C)CCCCCCCCCCC [^MeP2P-16,16]	> 250
CCCCCCCCCC[P+](CC[P+](CCCCCCCCCC)(c1ccccc1)c1ccccc1)(c1ccccc1)c1ccccc1 [^PhP2P-10,10, reference compound]	8

System: red blood cells
Test: Red Blood Cell (RBC) Lysis Assay (lysis20)
Assay type: cell-based, sheep
Conditions: concentration inducing 20% RBC lysis; sheep blood, 1 hour, 37 °C
Method: RBC lysis assays were performed on mechanically defibrinated sheep blood (Hemostat Labs: DSB030). An aliquot of 1.5 mL blood was placed into a microcentrifuge tube and centrifuged at 3,800 rpm for ten minutes. The supernatant was removed, and the cells were resuspended with 1 mL of phosphate-buffered saline (PBS). The suspension was centrifuged as described above, the supernatant was removed, and cells were resuspended 4 additional times in 1 mL PBS. The final cell suspension was diluted twentyfold with PBS. Compounds were serially diluted with PBS two-fold from stock solutions (1.0 mM) to yield 100 μL of twelve test concentrations on a flat-bottom 96-well plate (Corning, 351172), wherein the starting concentration of DMSO was 2.5%. To each of the wells, 100 μL of the twentyfold suspension dilution was then inoculated. TritonX (1% by volume) served as a positive control (100% lysis marker) and sterile PBS served as a negative control (0% lysis marker). Samples were then placed in an incubator at 37 °C and shaken at 200 rpm. After 1 hour, the samples were centrifuged at 3,800 rpm for ten minutes. The absorbance of the supernatant was measured with a UV spectrometer at a 540 nm wavelength. The concentration inducing 20% RBC lysis was then calculated for each compound based upon the absorbances of the TritonX and PBS controls. Aqueous DMSO controls were conducted as appropriate for each compound.
The potential cytotoxicity of the compounds was also considered with the evaluation of hemolysis (lysis20) assays with 20% lysis of red blood cells serving as an indicator of potentially toxic compounds. Finally, the bioactivity of these compounds were benchmarked against a commercial benzalkonium chloride source (BAC; 70% benzyldimethyldodecylammonium chloride, and 30% benzyldimethyltetradecylammonium chloride) as well as some previously reported disinfectant compounds from the inventors' groups; included were bisQPC ^PhP6P-10,10 as well as ^PhP2P-10,10 and 12(2)12. A detailed description of the experimental procedures used to evaluate bioactivity and hemolysis assays are described above.

Structure (SMILES)	Lysis20 [µM]
CCCCCCCCCC[P+](C)(C)CC[P+](C)(C)CCCCCCCCCC [^MeP2P-10,10]	63
CCCCCCCCCCC[P+](C)(C)CC[P+](C)(C)CCCCCCCCCCC [^MeP2P-11,11]	16
CCCCCCCCCCCCCC[P+](C)(C)CC[P+](C)(C)CCCCCCCCCCC [^MeP2P-14,14]	8
CCCCCCCCCCCCCCCC[P+](C)(C)CC[P+](C)(C)CCCCCCCCCCC [^MeP2P-16,16]	125
CCCCCCCCCC[P+](CC[P+](CCCCCCCCCC)(c1ccccc1)c1ccccc1)(c1ccccc1)c1ccccc1 [^PhP2P-10,10, reference compound]	16
